Patent publication US12139498B1, “Positive allosteric modulators of the muscarinic acetylcholine receptor M4” (Vanderbilt University, priority 2023, dated 2024)

Target: T1, Human M4 (Homo sapiens, UniProt P08173)
T1 sequence (P08173 1-479): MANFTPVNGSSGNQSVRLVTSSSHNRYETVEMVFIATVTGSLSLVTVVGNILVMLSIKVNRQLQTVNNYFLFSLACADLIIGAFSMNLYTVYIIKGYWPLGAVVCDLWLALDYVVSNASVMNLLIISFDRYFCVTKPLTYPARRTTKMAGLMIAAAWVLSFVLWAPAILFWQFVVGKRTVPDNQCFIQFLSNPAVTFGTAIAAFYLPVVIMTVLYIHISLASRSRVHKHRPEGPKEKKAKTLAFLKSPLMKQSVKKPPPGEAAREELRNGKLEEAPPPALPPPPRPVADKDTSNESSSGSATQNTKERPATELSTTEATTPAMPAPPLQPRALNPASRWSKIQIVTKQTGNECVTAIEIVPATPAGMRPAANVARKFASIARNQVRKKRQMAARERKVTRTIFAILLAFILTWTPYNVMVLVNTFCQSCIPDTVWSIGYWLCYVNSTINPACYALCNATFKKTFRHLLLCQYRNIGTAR
Assay: M4 cell-based functional assay (calcium mobilization)
Design: expressed in transfected cells
Settings: for Emax at 30 µM: % ACh maximum at 30 μM; for EC50: CHO-K1 hM4-Gqi5 cells, calcium flux, increase in EC20 acetylcholine response
Method: Human (h) and rat (r) M4 CDNAs, along with the chimeric G protein Gqi5, were transfected into Chinese hamster ovary (CHO-K1) cells purchased from the American Type Culture Collection using Lipofectamine2000. The transfected cells were subjected to selection antibiotic treatment to generate stable cell lines; G418 sulfate (1 mg/ml) for selecting M4 expressing cells and Hygromycin B (500 μg/mL) for selecting Gqi5 expressing cells. The resulting polyclones were further screened to obtain monoclones of hM4-Gqi5 and rM4-Gqi5 for compound screening assay. Stable monoclone cells were maintained in Ham's F-12 medium containing 10% heat-inactivated fetal bovine serum (FBS), 1× Antibiotic/Antimycotic, 20 mM HEPES, 500 μg/mL G418 sulfate, and 200 μg/mL Hygromycin B in 37° C. humidified incubators in the presence of 5% CO2.
The high throughput assay was employed to measure receptor-induced mobilization of intracellular calcium to determine compound activity. Test compound was added to cells expressing the muscarinic receptors that were loaded with calcium sensitive fluorescent dye. After a ˜2.5 minute incubation period, a submaximal (EC20) concentration of acetylcholine was added, and the response measured. This kinetic assay allows for simultaneous screening and potency determination of multiple pharmacological modes of action including agonist and potentiator activity. CHO-K1 cells stably expressing muscarinic receptors were plated in growth medium lacking G418 and hygromycin at 15,000 cells/20 μL/well in Greiner 384-well black-walled, tissue culture (TC)-treated, clear-bottom plates (Greiner Bio-One). Cells were incubated overnight at 37° C. and 5% CO2. The next day, calcium assay buffer (Hank's balanced salt solution (HBSS), 20 mM HEPES, 2.5 mM Probenecid, 4.16 mM sodium bicarbonate (Sigma-Aldrich, St. Louis, MO)) was prepared to dilute compounds, agonists, and Fluo-4-acetomethoxyester (Fluo-4-AM), fluorescent calcium indicator dye. Compounds were serially diluted 1:3 into 10 point concentration response curves in DMSO using the Bravo Liquid Handler (Agilent, Santa Clara, CA), transferred to a 384 well daughter plates using an Echo acoustic liquid handler (Beckman Coulter, Indianapolis, Indiana), and diluted in assay Buffer to a 2× final concentration. The agonist plates were prepared using acetylcholine (ACh, Sigma-Aldrich, St. Louis, MO) concentrations for the EC20 and ECMAX responses by diluting in assay buffer to a 5× final concentration. The 2× dye solution (2.3 μM) was prepared by mixing a 2.3 mM Fluo-4-AM stock in DMSO with 10% (w/v) pluronic acid F-127 in a 1:1 ratio in assay buffer. Using a microplate washer (BioTek, Winooski, VT), cells were washed with assay buffer for 3 times to remove medium. After the final wash, 20 μL of assay buffer remained in the cell plates. Immediately, 20 μL of the 2× dye solution (final 1.15 μM) was added to each well of the cell plate using a Multidrop Combi dispenser (Thermo Fisher, Waltham, MA). After cells were incubated with the dye solutions for 45 min at 37° C. in the presence of 5% CO2, the dye solutions were removed and replaced with assay buffer using a microplate washer, leaving 20 μL of assay buffer in the cell plate.
The prepared compound, agonist, and cell plates were placed inside the Functional Drug Screening System uCell (FDSS uCell, Hamamatsu, Japan) to measure the calcium flux.
The triple add protocol was used to measure Ca kinetics; Compound, ACh for EC2O, and ACh for EC80 adds in an order. Briefly, after establishment of a fluorescence baseline for 2 seconds (excitation, 480 nm; emission, 530 nm), first add occurred by adding 20 μL of test compound to the cells, and the response was measured for 140 seconds. This is followed by second add; 10 μL (5×) of an EC20 concentration of ACh agonist was added to the cells, and the response of the cells was measured for 125 seconds. […]

Row | Emax at 30 µM | EC50 | SMILES
1 | 98% | 430 nM | Brc1nc2c(s1)CN(c1ncnc3ccsc13)CC2 [Compound 26, 2-bromo-5-(thieno[3,2-d]pyrimidin-4-yl)-4,5,6,7-tetrahydrothiazolo[5,4-c]pyridine]
2 | 43% | > 10000 nM | Cn1ccc2c(N3CCc4nc(Br)sc4C3)ncnc21 [Compound 27, 2-bromo-5-(7-methyl-7H-pyrrolo[2,3-d]pyrimidin-4-yl)-4,5,6,7-tetrahydrothiazolo[5,4-c]pyridine]
3 | 91% | 147 nM | Cc1ccc2ncnc(N3CCc4nc(Br)sc4C3)c2c1 [Compound 30, 2-bromo-5-(6-methylquinazolin-4-yl)-4,5,6,7-tetrahydrothiazolo[5,4-c]pyridine]
4 | 70% | 6070 nM | Cc1cc2nccc(=O)n2nc1N1CCc2nc(Br)sc2C1 [Compound 34, 7-(2-bromo-6,7-dihydrothiazolo[5,4-c]pyridin-5(4H)-yl)-8-methyl-4H-pyrimido[1,2-b]pyridazin-4-one]
5 | 89% | 291 nM | Cc1cc(=O)n2nc(N3CCc4nc(Br)sc4C3)c(C)cc2n1 [Compound 35, 7-(2-bromo-6,7-dihydrothiazolo[5,4-c]pyridin-5(4H)-yl)-2,8-dimethyl-4H-pyrimido[1,2-b]pyridazin-4-one]
6 | 91% | 37 nM | Cc1cc2nc(C(F)(F)F)cc(=O)n2nc1N1CCc2nc(Br)sc2C1 [Compound 36, 7-(2-bromo-6,7-dihydrothiazolo[5,4-c]pyridin-5(4H)-yl)-8-methyl-2-(trifluoromethyl)-4H-pyrimido[1,2-b]pyridazin-4-one]
7 | 80% | 1180 nM | Cc1cc2nc(C)c(C)c(=O)n2nc1N1CCc2nc(Br)sc2C1 [Compound 38, 7-(2-bromo-6,7-dihydrothiazolo[5,4-c]pyridin-5(4H)-yl)-2,3,8-trimethyl-4H-pyrimido[1,2-b]pyridazin-4-one]
8 | 88% | 75 nM | Cc1cc2nc(C(F)F)cc(=O)n2nc1N1CCc2nc(Br)sc2C1 [Compound 39, 7-(2-bromo-6,7-dihydrothiazolo[5,4-c]pyridin-5(4H)-yl)-2-(difluoromethyl)-8-methyl-4H-pyrimido[1,2-b]pyridazin-4-one]

Further lines, the compound ahead of its results:

Row | SMILES | Emax at 30 µM | EC50
9 | Fc1ccc2ncnc(N3CCc4nc(Br)sc4C3)c2c1 [Compound 28, 2-bromo-5-(6-fluoroquinazolin-4-yl)-4,5,6,7-tetrahydrothiazolo[5,4-c]pyridine] | 101% | 45 nM
10 | Clc1ccc2ncnc(N3CCc4nc(Br)sc4C3)c2c1 [Compound 29, 2-bromo-5-(6-chloroquinazolin-4-yl)-4,5,6,7-tetrahydrothiazolo[5,4-c]pyridine] | 96% | 144 nM
11 | COc1ccc2ncnc(N3CCc4nc(Br)sc4C3)c2c1 [Compound 31, 2-bromo-5-(6-methoxyquinazolin-4-yl)-4,5,6,7-tetrahydrothiazolo[5,4-c]pyridine] | 68% | 566 nM
12 | Cc1nc(N2CCc3nc(Br)sc3C2)c2cc(Cl)ccc2n1 [Compound 32, 2-bromo-5-(6-chloro-2-methylquinazolin-4-yl)-4,5,6,7-tetrahydrothiazolo[5,4-c]pyridine] | 91% | 200 nM
13 | Cc1nc(N2CCc3nc(Br)sc3C2)c2cc(F)ccc2n1 [Compound 33, 2-bromo-5-(6-fluoro-2-methylquinazolin-4-yl)-4,5,6,7-tetrahydrothiazolo[5,4-c]pyridine] | 99% | 79 nM
14 | Cc1nc2c(C)c(C)c(N3CCc4nc(Br)sc4C3)nn2c(=O)c1F [Compound 37, 7-(2-bromo-6,7-dihydrothiazolo[5,4-c]pyridin-5(4H)-yl)-3-fluoro-2,8,9-trimethyl-4H-pyrimido[1,2-b]pyridazin-4-one] | 81% | 47 nM
